Measurements published in ChEMBL document CHEMBL5579887, “Structure-Activity Relationship Studies of Substituted 2-Phenyl-1,2,4-triazine-3,5(2H,4H)-dione Analogues: Development of Potent eEF2K Degraders against Triple-Negative Breast Cancer” (J Med Chem, 2024).
In brackets after ≈: the same amount, converted by molar mass.

Assays:
MDA-MB-231 [1] = assay: cells; settings: Homo sapiens, MDA-MB-231, 72 h, read-out: INH
Description: Antitumor activity against human MDA-MB-231 cells assessed as inhibition of cell viability by measuring inhibition rate at 20 uM measured after 72 hrs by CCK-8 assay relative to control

[2] = Kinetic solubility of the compound in PBS buffer at pH 7.4 measured by HPLC analysis
MDA-MB-231 [3] = assay: cells; settings: Homo sapiens, MDA-MB-231, 72 h, read-out: INH; remark: listed apart in the source
Description: Antitumor activity against human MDA-MB-231 cells assessed as inhibition of cell viability by measuring inhibition rate at 1 uM measured after 72 hrs by CCK-8 assay relative to control

MDA-MB-231 [4] = assay: cells; settings: Homo sapiens, MDA-MB-231, 72 h
Description: Antitumor activity against human MDA-MB-231 cells assessed as inhibition of cell viability by measuring inhibition rate measured after 72 hrs by CCK-8 assay relative to control

[5] = biological target: T1, Eukaryotic elongation factor 2 kinase (Homo sapiens, UniProt O00418); assay: Binding affinity to eEF2K (unknown origin) assessed as dissociation constant measured by SPR analysis
T1 sequence (O00418 whole entry): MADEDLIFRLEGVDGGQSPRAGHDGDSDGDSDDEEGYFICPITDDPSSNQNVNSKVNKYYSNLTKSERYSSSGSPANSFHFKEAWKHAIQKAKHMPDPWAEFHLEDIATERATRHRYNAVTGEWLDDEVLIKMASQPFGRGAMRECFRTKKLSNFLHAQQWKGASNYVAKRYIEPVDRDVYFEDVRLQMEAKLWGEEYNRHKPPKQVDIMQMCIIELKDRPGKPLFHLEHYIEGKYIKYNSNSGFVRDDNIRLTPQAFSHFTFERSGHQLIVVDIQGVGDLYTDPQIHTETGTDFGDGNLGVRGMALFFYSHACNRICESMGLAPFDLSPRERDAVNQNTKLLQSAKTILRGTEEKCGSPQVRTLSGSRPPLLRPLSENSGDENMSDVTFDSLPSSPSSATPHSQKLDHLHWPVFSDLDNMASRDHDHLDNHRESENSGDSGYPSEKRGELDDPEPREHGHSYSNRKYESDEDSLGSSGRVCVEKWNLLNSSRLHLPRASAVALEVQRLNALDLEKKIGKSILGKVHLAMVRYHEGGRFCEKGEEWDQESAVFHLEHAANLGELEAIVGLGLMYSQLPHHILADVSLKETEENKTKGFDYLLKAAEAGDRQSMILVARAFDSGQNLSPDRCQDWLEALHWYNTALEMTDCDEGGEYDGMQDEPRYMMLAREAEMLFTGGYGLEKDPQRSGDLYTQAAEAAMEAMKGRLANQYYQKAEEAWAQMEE

MDA-MB-231 [6] = assay: cells; settings: Homo sapiens, MDA-MB-231, 72 h, read-out: INH; remark: listed apart in the source
Description: Antitumor activity against human MDA-MB-231 cells assessed as inhibition of cell viability at 100 nM measured after 72 hrs by CCK-8 assay

[7] = In vivo antitumor activity against human MDA-MB-231 cells xenografted in female nude mouse assessed as tumor growth inhibition at 10 mg/kg, ip administered every other day relative to control; settings: MDA-MB-231, read-out: TGI

Row | solubility kinetic [2] | IC50 (MDA-MB-231 [4]) | Kd [5] | Structure (SMILES) | inhibition at 20 µM (MDA-MB-231 [1]) | inhibition at 1 µM (MDA-MB-231 [3]) | inhibition at 0.1 µM (MDA-MB-231 [6]) | inhibition in vivo at 10 mg/kg [7]
1 | – | – | – | CCn1c(=O)c2cc(C(N)=O)c(N)nc2n(C2CC2)c1=O | 4.67% | – | – | –
2 | 15 µM (≈ 7.88 µg/mL) | – | – | Cc1ccc(-n2nc(C(=O)Nc3ccc(CN4CCOCC4)cc3)c(=O)n(Cc3ccccc3)c2=O)cc1C | 52.8% | – | – | –
3 | 103 µM (≈ 37.3 µg/mL) | – | – | COc1cccc(Cn2c(=O)c(C#N)nn(-c3ccc(C)c(C)c3)c2=O)c1 | 97.4% | 48.9% | – | –
4 | – | – | – | Cc1ccc(-n2nc(C#N)c(=O)n(Cc3ccncc3)c2=O)cc1C | 0.27% | – | – | –
5 | 57 µM (≈ 32.2 µg/mL) | 232 nM | – | Cc1ccc(-n2nc(C(=O)N3CCC[C@@H](CNC(=O)OC(C)(C)C)C3)c(=O)n(Cc3cccc(F)c3)c2=O)cc1C | 99.3% | 92.1% | – | –
6 | – | – | – | Cc1ccc(-n2nc(C#N)c(=O)n(Cc3ccccc3F)c2=O)cc1C | 93.5% | -3.59% | – | –
7 | 67 µM (≈ 26.8 µg/mL) | – | – | Cc1ccc(-n2nc(C#N)c(=O)n(Cc3cccc(C(F)(F)F)c3)c2=O)cc1C | 92.9% | 19.3% | – | –
8 | 19 µM (≈ 10.2 µg/mL) | 279 nM | – | Cc1ccc(-n2nc(C(=O)N3CCC(C(=O)OC(C)(C)C)CC3)c(=O)n(Cc3cccc(F)c3)c2=O)cc1C | 90.4% | 90.7% | – | –
9 | 106 µM (≈ 35.3 µg/mL) | – | – | Cc1ccc(-n2nc(C#N)c(=O)n(Cc3cccnc3)c2=O)cc1C | 34.8% | – | – | –
10 | 44 µM (≈ 24.9 µg/mL) | 102 nM | 436 nM | Cc1ccc(-n2nc(C(=O)N3CCCC(CNC(=O)OC(C)(C)C)C3)c(=O)n(Cc3cccc(F)c3)c2=O)cc1C (stereo not drawn) | 96% | 91.2% | – | –
11 | 24 µM (≈ 13.6 µg/mL) | 261 nM | – | Cc1ccc(-n2nc(C(=O)N3CCC[C@H](CNC(=O)OC(C)(C)C)C3)c(=O)n(Cc3cccc(F)c3)c2=O)cc1C | 99.9% | 92.2% | – | –
12 | – | > 1000 nM | – | Cc1ccc(-n2nc(C(=O)N3CCNCC3)c(=O)n(Cc3ccccc3)c2=O)cc1C | 96.7% | – | – | –
13 | 20 µM (≈ 8.73 µg/mL) | 94.1 nM | – | Cc1ccc(-n2nc(C(=O)N3CCCCC3)c(=O)n(Cc3ccccc3F)c2=O)cc1C | 99.2% | 93.5% | – | –
14 | 129 µM (≈ 71.2 µg/mL) | 478 nM | – | Cc1ccc(-n2nc(C(=O)N3CCC[C@@H](NC(=O)OC(C)(C)C)C3)c(=O)n(Cc3cccc(F)c3)c2=O)cc1C | 98.3% | 74.1% | – | –
15 | 96 µM (≈ 41.9 µg/mL) | 771 nM | – | Cc1ccc(-n2nc(C(=O)N3CCCCC3)c(=O)n(Cc3ccc(F)cc3)c2=O)cc1C | 94.1% | 63.8% | – | –
16 | 44 µM (≈ 18.5 µg/mL) | 659 nM | – | Cc1ccc(-n2nc(C(=O)N3CCOCC3)c(=O)n(Cc3ccccc3)c2=O)cc1C | 95.8% | 70.1% | – | –
17 | – | ~1000 nM | – | O=C(/C=C/c1cccc(C(F)(F)F)c1)c1cc2ccccc2oc1=O | – | – | – | –
18 | – | – | – | Cc1ccc(-n2nc(C(=O)NCCN3CCOCC3)c(=O)n(Cc3ccccc3)c2=O)cc1C | 60.9% | – | – | –
19 | – | – | – | Cc1ccc(-n2nc(C#N)c(=O)n(Cc3ccccc3)c2=O)cc1C | 96.4% | 58.1% | – | –
20 | 54 µM (≈ 29 µg/mL) | – | – | Cc1ccc(-n2nc(C(=O)N3CCCN(C(=O)OC(C)(C)C)C3)c(=O)n(Cc3cccc(F)c3)c2=O)cc1C | 96% | 39.9% | – | –
21 | – | – | – | Cc1ccc(-n2nc(C(=O)N3CCC(F)(F)CC3)c(=O)n(Cc3cccc(F)c3)c2=O)cc1C | 84.3% | 58.6% | – | –
22 | 71 µM (≈ 20.9 µg/mL) | – | – | CC#CCn1c(=O)c(C#N)nn(-c2ccc(C)c(C)c2)c1=O | 85.5% | – | – | –
23 | – | – | – | Cc1ccc(-n2nc(C(=O)N3CCCNCC3)c(=O)n(Cc3ccccc3)c2=O)cc1C | 53.6% | – | – | –
24 | – | – | – | Cc1ccc(-n2nc(C#N)c(=O)n(Cc3ccccn3)c2=O)cc1C | -4.94% | – | – | –
25 | – | – | – | Cc1ccc(-n2nc(C(=O)N3CCN(C(=O)OC(C)(C)C)CC3)c(=O)n(Cc3cccc(F)c3)c2=O)cc1C | 95% | – | – | –
26 | 30 µM (≈ 12.1 µg/mL) | 288 nM | – | Cc1ccc(-n2nc(C(=O)N3CCCC3)c(=O)n(Cc3ccccc3)c2=O)cc1C | 95.4% | 83.4% | – | –

Row | solubility kinetic [2] | IC50 (MDA-MB-231 [4]) | Kd [5] | Structure (SMILES) | inhibition at 20 µM (MDA-MB-231 [1]) | inhibition at 1 µM (MDA-MB-231 [3]) | inhibition at 0.1 µM (MDA-MB-231 [6]) | inhibition in vivo at 10 mg/kg [7]
27 | – | – | – | Cc1ccc(-n2nc(C(=O)N3CCC3)c(=O)n(Cc3ccccc3)c2=O)cc1C | 98.7% | 17.7% | – | –
28 | – | – | – | Cc1ccc(-n2nc(C#N)c(=O)n(Cc3ccc(F)cc3)c2=O)cc1C | 93.6% | -1.93% | – | –
29 | – | – | – | Cc1ccc(-n2nc(C(=O)NC3CCN(Cc4ccccc4)CC3)c(=O)n(Cc3ccccc3)c2=O)cc1C | 74.9% | – | – | –
30 | – | – | – | Cc1ccc(-n2nc(C(=O)N3CCN(c4ccccc4)CC3)c(=O)n(Cc3ccccc3)c2=O)cc1C | 79% | – | – | –
31 | 17 µM (≈ 7.42 µg/mL) | 168 nM | – | Cc1ccc(-n2nc(C(=O)N3CCCCC3)c(=O)n(Cc3cccc(F)c3)c2=O)cc1C | 99.6% | 93.3% | – | –
32 | 15 µM (≈ 5.26 µg/mL) | – | – | Cc1ccc(-n2nc(C#N)c(=O)n(Cc3cccc(F)c3)c2=O)cc1C | 91.1% | 23.2% | – | –
33 | – | – | – | Cc1ccc(-n2nc(C(=O)N3CCN(C(=O)C4CC4)CC3)c(=O)n(Cc3cccc(F)c3)c2=O)cc1C | 22.2% | – | – | –
34 | 36 µM (≈ 16.4 µg/mL) | 484 nM | – | Cc1ccc(-n2nc(C(=O)N3CCC(F)(F)CC3)c(=O)n(Cc3ccccc3)c2=O)cc1C | 96.8% | 61.5% | – | –
35 | 25 µM (≈ 11.8 µg/mL) | – | – | COc1ccccc1CNC(=O)c1nn(-c2ccc(C)c(C)c2)c(=O)n(Cc2ccccc2)c1=O | 17.5% | – | – | –
36 | 62 µM (≈ 26.8 µg/mL) | 45.9 nM | – | Cc1ccc(-n2nc(C(=O)N3CCCCCC3)c(=O)n(Cc3ccccc3)c2=O)cc1C | 99.7% | 96% | – | –
37 | – | > 1000 nM | – | CCN1CCN(C(=O)c2nn(-c3ccc(C)c(C)c3)c(=O)n(Cc3ccccc3)c2=O)CC1 | 93.3% | – | – | –
38 | 90 µM (≈ 45.8 µg/mL) | 131 nM | – | CCOC(=O)C1CCCN(C(=O)c2nn(-c3ccc(C)c(C)c3)c(=O)n(Cc3cccc(F)c3)c2=O)C1 (stereo not drawn) | 98.4% | 87.6% | – | –
39 | 56 µM (≈ 21.2 µg/mL) | 867 nM | – | Cc1ccc(-n2nc(C(=O)N(C)C)c(=O)n(Cc3ccccc3)c2=O)cc1C | 89.8% | 64% | – | –
40 | 99 µM (≈ 55.8 µg/mL) | – | – | Cc1ccc(-n2nc(C(=O)N3C4CCC3CN(C(=O)OC(C)(C)C)C4)c(=O)n(Cc3cccc(F)c3)c2=O)cc1C | 14.5% | – | – | –
41 | 41 µM (≈ 22.6 µg/mL) | 611 nM | – | Cc1ccc(-n2nc(C(=O)N3CCCN(C(=O)OC(C)(C)C)CC3)c(=O)n(Cc3cccc(F)c3)c2=O)cc1C | 98.3% | 71.1% | – | –
42 | 57 µM (≈ 24.9 µg/mL) | 132 nM | – | Cc1ccc(-n2nc(C(=O)N3CCC(F)CC3)c(=O)n(Cc3ccccc3)c2=O)cc1C | 99.3% | 89.5% | – | –
43 | – | – | – | Cc1ccc(-n2nc(C(=O)N3CC(N(C)C(=O)OC(C)(C)C)C3)c(=O)n(Cc3cccc(F)c3)c2=O)cc1C | 98.5% | – | – | –
44 | – | – | – | Cc1ccc(-n2nc(C(=O)N3CCC[C@H](NC(=O)OC(C)(C)C)C3)c(=O)n(Cc3cccc(F)c3)c2=O)cc1C | 98% | 8.56% | – | –
45 | – | – | – | CCOC(=O)N1CCN(C(=O)c2nn(-c3ccc(C)c(C)c3)c(=O)n(Cc3cccc(F)c3)c2=O)CC1 | 95.5% | – | – | –
46 | – | – | – | Cc1ccc(-n2nc(C(=O)N3CCN(C(=O)N(C)C)CC3)c(=O)n(Cc3cccc(F)c3)c2=O)cc1C | 12.8% | – | – | –
47 | – | – | – | Cc1ccc(-n2nc(C(=O)N3CC(NC(=O)OC(C)(C)C)C3)c(=O)n(Cc3cccc(F)c3)c2=O)cc1C | 73% | – | – | –
48 | – | > 1000 nM | – | Cc1ccc(-n2nc(C(=O)N3CCCN(C)CC3)c(=O)n(Cc3ccccc3)c2=O)cc1C | 97.2% | – | – | –
49 | 47 µM (≈ 17.7 µg/mL) | – | – | Cc1ccc(-n2nc(C(=O)N3CC3)c(=O)n(Cc3ccccc3)c2=O)cc1C | 72.7% | – | – | –
50 | – | – | – | Cc1ccc(-n2nc(C(=O)NCc3ccccn3)c(=O)n(Cc3ccccc3)c2=O)cc1C | 71.2% | – | – | –
51 | – | > 1000 nM | – | Cc1ccc(-n2nc(C(=O)NCCN(C)C)c(=O)n(Cc3ccccc3)c2=O)cc1C | 97.7% | – | – | –
52 | – | 38.3 nM | – | CC(=O)O[C@H]1C(=O)[C@@]2(C)[C@H]([C@H](OC(=O)c3ccccc3)[C@]3(O)C[C@H](OC(=O)[C@H](O)[C@@H](NC(=O)c4ccccc4)c4ccccc4)C(C)=C1C3(C)C)[C@]1(OC(C)=O)CO[C@@H]1C[C@@H]2O [PACLITAXEL] | – | 88.9% | 82.4% | 52.7%
